Experimental data reported in patent US20230241023A1, “STABILIZATION OF 1,2,4-TRIOXANE COMPOUNDS BY CHLOROGENIC ACIDS” (Artemiflow GmbH, priority 2020, published 2023).

Assay: Stability of artemisinin in presence of additives (heating in aqueous solution with glucose, 1H NMR quantification)
Type: physicochemical
Conditions: glucose 1 mol equivalent, 93° C. for 90 minutes, open to the atmosphere
Description: Solvents were obtained from commercial suppliers and used without further purification. Dried leaves of Artemisia annua were obtained from ArtemiLife Corp. and Artemisinin was previously prepared and purified by crystallization using the protocols detailed in Horváth, Z.; Horosanskaia, E.; Lee, J. W.; Lorenz, H.; Gilmore, K.; Seeberger, P. H.; Seidel-Morgenstern, A. Recovery of Artemisinin from a Complex Reaction Mixture Using Continuous Chromatography and Crystallization. Org. Process Res. Dev. 2015, 19, 624-634. The Artemisinin crystals obtained thereby were ground prior to use.
Ground coffee used in extractions was preground 100% Arabica beans from Café Intención. Coffee was prepared in a Rowenta C T 3818 Milano coffee maker using size 4 coffee filters (Melitta brand). Coffee beans (100% Arabica) were preground from. 100 g of ground coffee was added to the cone coffee filter in the machine and 1350 mL of water used to make the coffee using the single setting. Coffee was then transferred to a thermos, stored at room temperature, and used without further modification.
Two solvents were tested, tap water and premade black coffee. […] All mixtures were heated to 93° C. for 90 minutes in 10 mL glass vials open to the atmosphere. Halfway through heating, 1-2 mL of tap water was added to compensate for evaporation. […]

C[C@@H]1CC[C@H]2[C@@H](C)C(=O)O[C@@H]3O[C@@]4(C)CC[C@@H]1[C@]32OO4 [artemisinin]
clean loss of artemisinin (1H NMR) (Example 1 (for comparison): 5 mL tap water): 32%
clean loss of artemisinin (1H NMR) (Example 2 (inventive): 5 mL premade black coffee (source of chlorogenic acids)): 19%
